In one series the target is P2Y purinoceptor 1 (Homo sapiens, UniProt P47900). In words: Displacement of [beta-33P]-2MeS-ADP from human P2Y1 receptor expressed in HEK293 cells after 1 hr by scintillation counting analysis. It counts as cell-based.
Series [1] is described as follows: Antiplatelet activity in human platelet-rich plasma assessed as inhibition of ADP-induced platelet aggregation. It is filed as functional, cell-free.
Series [2] can be described thus: Lipophilicity, log P of the compound by HPLC analysis. It is filed as physicochemical.
Series [3] in a line: Plasma protein binding in human. It is filed as ADME, cell-free. The note with it: read-out: PPB (converted).
Series [4] is described as follows: Antiplatelet activity in human platelet-rich plasma assessed as inhibition of ADP-induced platelet aggregation relative to untreated control. It is filed as functional.
A short description of series [5]: Solubility of the compound at pH 6.5. It is filed as physicochemical. Particulars: buffer.

The values below come from ChEMBL document CHEMBL2390850, “New azole antagonists with high affinity for the P2Y(1) receptor” (Bioorg Med Chem Lett, 2013).

A value given as a limit tells only on which side of the number the result lay.

Usually Ki stands for a measure of affinity in units of concentration, obtained from inhibition or displacement. Read a low Ki as tighter binding. As usually defined, the IC50 is the concentration that inhibits the measured activity by half. For orientation: logP means the decadic logarithm of the partition coefficient of the neutral form, usually between octanol and water. Lower therefore signals a more hydrophilic compound. Usually solubility stands for the concentration that dissolves in the medium under given conditions. A low value points to a poorly soluble substance.

P2Y purinoceptor 1, sequence (P47900 whole entry): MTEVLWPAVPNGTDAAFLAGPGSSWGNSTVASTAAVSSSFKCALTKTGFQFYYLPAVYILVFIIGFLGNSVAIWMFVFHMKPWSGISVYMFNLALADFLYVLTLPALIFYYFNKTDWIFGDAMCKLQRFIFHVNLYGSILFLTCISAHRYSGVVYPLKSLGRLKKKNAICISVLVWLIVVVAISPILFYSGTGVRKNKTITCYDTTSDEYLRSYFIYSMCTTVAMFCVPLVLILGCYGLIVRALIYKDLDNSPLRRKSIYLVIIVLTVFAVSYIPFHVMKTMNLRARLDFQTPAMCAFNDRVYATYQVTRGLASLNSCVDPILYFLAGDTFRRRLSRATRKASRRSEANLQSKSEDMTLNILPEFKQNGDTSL

Molecule `CC(C)(C)c1ccccc1Oc1ncccc1Nc1nnc(-c2ccc3ccccc3c2)s1` returned a Ki on P2Y purinoceptor 1 of 18 nM.
On the same count and under the same terms, next, `CC(C)(C)c1ccccc1Oc1ncccc1N=C1NCC(c2ccccc2)O1` (stereo not drawn): 2500 nM.
On P2Y purinoceptor 1, `CC(C)(C)c1ccccc1Oc1ncccc1Nc1nnc(-c2ccccc2)s1` had a Ki of 11 nM. Further, the concentration for half-maximal inhibition (IC50) in series [1] is 13000 nM. The molecule also had a logP in series [2] of 5.01.
`CC(C)(C)c1ccccc1Oc1ncccc1Nc1nnc(-c2ccccn2)s1` had an inhibition constant (Ki) at P2Y purinoceptor 1 of 21 nM.
On the same count and under the same terms, next, `CC(C)(C)c1ccccc1Oc1ncccc1Nc1ncc(-c2ccccc2)o1`: 59 nM.
As to `CC(C)(C)c1ccccc1Oc1ncccc1Nc1nnc(-c2ccccc2)o1`, the affinity on P2Y purinoceptor 1 corresponds to a Ki of 70 nM.
Still for that read-out and setting: next, `CC(C)(C)c1ccccc1Oc1ncccc1Nc1noc(-c2ccccc2)n1`: 410 nM.
On to `CC(C)(C)c1ccccc1Oc1ncccc1NC(=O)Nc1ccc(OC(F)(F)F)cc1`, for which the fraction unbound in series [3] is 0.007.
The molecule `CC(C)(C)c1ccccc1Oc1ncccc1Nc1cc(-c2ccccc2)no1` had a Ki at P2Y purinoceptor 1 of 23 nM.
The same measure, in the same setting: next, `CN(C)c1ccc(-c2nnc(Nc3cccnc3Oc3ccccc3C(C)(C)C)s2)cc1`: 27 nM; `CC(C)(C)c1ccccc1Oc1ncccc1Nc1nsc(-c2ccccc2)n1`: 1500 nM; `CN(C)Cc1ccc(-c2nnc(Nc3cccnc3Oc3ccccc3C(C)(C)C)s2)cc1`: 250 nM.
The same measure, in the same setting: for `CC(C)(C)c1ccccc1Oc1ncccc1Nc1cc(-c2ccccc2)n[nH]1` the value was 870 nM.
The same measure, in the same setting: next, `CN(C)c1cccc(-c2nnc(Nc3cccnc3Oc3ccccc3C(C)(C)C)s2)c1`: 55 nM; `CC(C)(C)c1ccccc1Oc1ncccc1Nc1nnc(-c2ccc(OC(F)(F)F)cc2)s1`: 10 nM; `CC(C)(C)c1ccccc1Oc1ncccc1Nc1cc(-c2ccccc2)on1`: 19 nM.
At P2Y purinoceptor 1, `CC(C)(C)c1ccccc1Oc1ncccc1Nc1nnc(-c2cccnc2)s1` yielded a Ki of 340 nM.
On to `CC(C)(C)c1ccccc1Oc1ncccc1NC(=O)Nc1ccc(C(F)(F)F)cc1`, for which the inhibition constant (Ki) on P2Y purinoceptor 1 was 15 nM. Moreover, the IC50 in series [1] came out at 12600 nM.
On P2Y purinoceptor 1, `CN(C)Cc1cccc(-c2nnc(Nc3cccnc3Oc3ccccc3C(C)(C)C)s2)c1` had a Ki of 670 nM.
`CC(C)(C)c1ccccc1Oc1ncccc1NC(=O)Nc1ccccc1` showed a Ki at P2Y purinoceptor 1 of 41 nM. Further, the “inhibition (INH)” value in series [4] is given as 95%.
As for `CC(C)(C)c1ccccc1Oc1ncccc1Nc1ncc(-c2ccccc2)s1`, the inhibitory constant (Ki) on P2Y purinoceptor 1 turned out to be 15 nM. Moreover, the log partition coefficient (logP) in series [2] stood at 5.98.
In turn, `CCOC(=O)c1nnc(Nc2cccnc2Oc2ccccc2C(C)(C)C)s1` gave an inhibition constant Ki on P2Y purinoceptor 1 of 90 nM.
On to `CC(C)(C)c1ccccc1Oc1ncccc1Nc1nnc(C(=O)O)s1`, for which the affinity on P2Y purinoceptor 1, expressed as Ki, was 2900 nM.
On the same count and under the same terms, for `CC(C)(C)c1ccccc1Oc1ncccc1Nc1nc(-c2ccccc2)ns1` the value was 25 nM; for `Cn1nc(-c2ccccc2)cc1Nc1cccnc1Oc1ccccc1C(C)(C)C`, greater than 36000 nM.
`Cn1nc(Nc2cccnc2Oc2ccccc2C(C)(C)C)cc1-c1ccccc1` displayed a Ki on P2Y purinoceptor 1 of 45 nM.
Take `CC(C)(C)c1ccccc1Oc1ncccc1Nc1nnc(-c2ccncc2)s1`: the affinity at P2Y purinoceptor 1 corresponds to a Ki of 275 nM. The IC50 in series [1] is 29000 nM.
At P2Y purinoceptor 1, `CC(C)(C)c1ccccc1Oc1ncccc1Nc1nncs1` displayed a Ki of 2730 nM.
For `CC(C)(C)c1ccccc1Oc1ncccc1Nc1nnc(-c2ccc(C(F)(F)F)cc2)s1`, on P2Y purinoceptor 1, affinity was put at a Ki of 7 nM. For the same molecule, the IC50 in series [1] amounted to 7500 nM. Further, in series [2], the lipophilicity (logP) is 6. Besides, the solubility in series [5] was less than 1 µg/mL.
